Experimental data: patent publication US8178077B2, “Drug development target protein and target gene, and method of screening” (Reverse Proteomics Research Institute Co., Ltd., priority 2004, dated 2012)

Legend:
[1] = target: T1, FLJ39196 clone-derived protein (human neurocalcin δ) (Homo sapiens, UniProt P61601); assay: SEC/MS interaction analysis (size exclusion spin column and mass analysis) with FLJ39196 clone-derived protein; type: binding
T1 construct: A human full-length cDNA clone was expressed as a protein with an N-terminal His tag; His tag (N); made in house; host or cells: Escherichia coli BL21star(DE3)pLysS (pDEST17 Gateway expression plasmid)
From the text: To analyze the interactions between commonly used drugs and proteins expressed from human full-length cDNA clones while keeping both the proteins and the compounds in non-modified, non-immobilized state, size exclusion chromatography (SEC) and mass analysis were used in combination (FIGS. 1, 2). The specific procedures are shown below.
The compound-protein mixture prepared in step 1 was subjected to chromatography using an SEC column, the compound and the protein were separated by SEC, and the compound that interacted with the bound compound or protein contained in the protein fraction was analyzed using a mass analyzer.
Protein concentrations were measured using BCA Protein Assay (PIERCE), in consideration of the purity calculated by SDS-PAGE.
Mass analysis was performed using LCQ DECA XP (Thermoelectron) or Q-TOFmicro (Micromass), equipped with an ESI probe. The LC pump used was Agilent 1100 (Yokogawa Analytical Systems), and the autosampler used was HTC-PAL (CTC Analytics) equipped with a cooling stacker.
In the SEC method using 384-well spin columns, Unifilter 100 (Whatman), packed with 10 μL (dry volume) of Bio-Gel P6 (BIO-RAD) and swollen with milliQ water, was used as the SEC column. 13.3 μL of a protein-free reference standard or a 25 μM protein standard and 0.7 μL of a multiplied liquid comprising 25 μM of each pharmaceutical compound (5% DMSO aqueous solution) were mixed; 9 μL of this mixture was aliquoted into the SEC spin columns. The SEC spin column was mounted on an acetonitrile-aliquoted 384-well U-bottom plate and centrifuged; the SEC spin column filtrate, which is a protein fraction, was retrieved in 50% acetonitrile. The protein precipitate produced by the acetonitrile was removed via centrifugation and filtration for deproteinization; the resulting filtrate was concentrated by centrifugation and re-dissolved in 10 μL of 50% methanol to obtain a mass analysis sample. The mobile phase supplied to the mass analyzer was 0.1% formic acid/50% methanol solution in the positive ion mode, and 0.1% ammonia/50% methanol solution in the negative ion mode; these mobile phases were used at a flow rate of 40 μL/min. 2-μL of mass analysis samples were injected using an autosampler at 2-minute intervals; the mass spectral intensity of the compound was measured to obtain the spectral intensity of the pharmaceutical compound contained in the SEC spin column filtrate (protein fraction eluted from SEC).

[2] = target: T2, FLJ20589 clone-derived protein (human hippocalcin-like protein 1, VILIP-3) (Homo sapiens, UniProt P37235); assay: SEC/MS interaction analysis (size exclusion spin column and mass analysis) with FLJ20589 clone-derived protein; type: binding
T2 construct: A human full-length cDNA clone was expressed as a protein with an N-terminal His tag; His tag (N); made in house; host or cells: Escherichia coli BL21star(DE3)pLysS (pDEST17 Gateway expression plasmid)

[3] = protein 0 μM (protein-free reference), compound 1 μM
[4] = protein 0 μM (protein-free reference), compound 10 μM
[5] = protein 0 μM (protein-free reference), compound 100 μM
[6] = protein 0 μM (protein-free reference), compound 250 μM
[7] = protein 23.75 μM, compound 1 μM
[8] = protein 23.75 μM, compound 10 μM
[9] = protein 23.75 μM, compound 100 μM
[10] = protein 23.75 μM, compound 250 μM
[11] = protein 47.5 μM, compound 10 μM
[12] = protein 47.5 μM, compound 100 μM
[13] = protein 47.5 μM, compound 250 μM

Molecule: c1ccc(-c2ccc(C(c3ccccc3)n3ccnc3)cc2)cc1 (centres unmarked) [Bifonazole]
- spectral intensity of the compound in the SEC spin column filtrate (protein fraction) [1, 3]: 32068857
- spectral intensity of the compound in the SEC spin column filtrate (protein fraction) [1, 4]: 34579053
- spectral intensity of the compound in the SEC spin column filtrate (protein fraction) [1, 5]: 30705006
- spectral intensity of the compound in the SEC spin column filtrate (protein fraction) [1, 6]: 32278650
- spectral intensity of the compound in the SEC spin column filtrate (protein fraction) [1, 7]: 27516354
- spectral intensity of the compound in the SEC spin column filtrate (protein fraction) [1, 8]: 30253800
- spectral intensity of the compound in the SEC spin column filtrate (protein fraction) [1, 9]: 60323012
- spectral intensity of the compound in the SEC spin column filtrate (protein fraction) [1, 10]: 85169446
- spectral intensity of the compound in the SEC spin column filtrate (protein fraction) ([1]; protein 47.5 μM, compound 1 μM): 33844567
- spectral intensity of the compound in the SEC spin column filtrate (protein fraction) [1, 11]: 38342358
- spectral intensity of the compound in the SEC spin column filtrate (protein fraction) [1, 12]: 152159135
- spectral intensity of the compound in the SEC spin column filtrate (protein fraction) [1, 13]: 322219706
- spectral intensity of the compound in the SEC spin column filtrate (protein fraction) [2, 3]: 2704636
- spectral intensity of the compound in the SEC spin column filtrate (protein fraction) [2, 4]: 2935358
- spectral intensity of the compound in the SEC spin column filtrate (protein fraction) [2, 5]: 2558136
- spectral intensity of the compound in the SEC spin column filtrate (protein fraction) [2, 6]: 3779926
- spectral intensity of the compound in the SEC spin column filtrate (protein fraction) [2, 7]: 2343078
- spectral intensity of the compound in the SEC spin column filtrate (protein fraction) [2, 8]: 2189489
- spectral intensity of the compound in the SEC spin column filtrate (protein fraction) [2, 9]: 3826699
- spectral intensity of the compound in the SEC spin column filtrate (protein fraction) [2, 10]: 3607174
- spectral intensity of the compound in the SEC spin column filtrate (protein fraction) ([2]; protein 47.5 μM, compound 1 μM): 1367901
- spectral intensity of the compound in the SEC spin column filtrate (protein fraction) [2, 11]: 2513645
- spectral intensity of the compound in the SEC spin column filtrate (protein fraction) [2, 12]: 8024232
- spectral intensity of the compound in the SEC spin column filtrate (protein fraction) [2, 13]: 28949362

Molecule: Fc1ccc(C(c2ccc(F)cc2)N2CCN(C/C=C/c3ccccc3)CC2)cc1 [Flunarizine]
- spectral intensity of the compound in the SEC spin column filtrate (protein fraction) [2, 3]: 188851
- spectral intensity of the compound in the SEC spin column filtrate (protein fraction) [2, 4]: 200579
- spectral intensity of the compound in the SEC spin column filtrate (protein fraction) [2, 5]: 198757
- spectral intensity of the compound in the SEC spin column filtrate (protein fraction) [2, 6]: 253795
- spectral intensity of the compound in the SEC spin column filtrate (protein fraction) [2, 7]: 501950
- spectral intensity of the compound in the SEC spin column filtrate (protein fraction) [2, 8]: 137693
- spectral intensity of the compound in the SEC spin column filtrate (protein fraction) [2, 9]: 181386
- spectral intensity of the compound in the SEC spin column filtrate (protein fraction) [2, 10]: 308575
- spectral intensity of the compound in the SEC spin column filtrate (protein fraction) ([2]; protein 47.5 μM, compound 1 μM): 58869
- spectral intensity of the compound in the SEC spin column filtrate (protein fraction) [2, 11]: 178128
- spectral intensity of the compound in the SEC spin column filtrate (protein fraction) [2, 12]: 2683794
- spectral intensity of the compound in the SEC spin column filtrate (protein fraction) [2, 13]: 9317332

Molecule: Dihydroergotoxine mesylate
- spectral intensity of the compound in the SEC spin column filtrate (protein fraction) ([1]; measured mass range m/z 564.1-565.1, protein 0 μM (protein-free reference), compound 1 μM): 25150786
- spectral intensity of the compound in the SEC spin column filtrate (protein fraction) ([1]; measured mass range m/z 564.1-565.1, protein 0 μM (protein-free reference), compound 10 μM): 29311635
- spectral intensity of the compound in the SEC spin column filtrate (protein fraction) ([1]; measured mass range m/z 564.1-565.1, protein 0 μM (protein-free reference), compound 100 μM): 76261189
- spectral intensity of the compound in the SEC spin column filtrate (protein fraction) ([1]; measured mass range m/z 564.1-565.1, protein 0 μM (protein-free reference), compound 250 μM): 326128137
- spectral intensity of the compound in the SEC spin column filtrate (protein fraction) ([1]; measured mass range m/z 564.1-565.1, protein 23.75 μM, compound 1 μM): 19680823
- spectral intensity of the compound in the SEC spin column filtrate (protein fraction) ([1]; measured mass range m/z 564.1-565.1, protein 23.75 μM, compound 10 μM): 36914079
- spectral intensity of the compound in the SEC spin column filtrate (protein fraction) ([1]; measured mass range m/z 564.1-565.1, protein 23.75 μM, compound 100 μM): 177369018
- spectral intensity of the compound in the SEC spin column filtrate (protein fraction) ([1]; measured mass range m/z 564.1-565.1, protein 23.75 μM, compound 250 μM): 232715490
- spectral intensity of the compound in the SEC spin column filtrate (protein fraction) ([1]; measured mass range m/z 564.1-565.1, protein 47.5 μM, compound 1 μM): 16556794
- spectral intensity of the compound in the SEC spin column filtrate (protein fraction) ([1]; measured mass range m/z 564.1-565.1, protein 47.5 μM, compound 10 μM): 45033425
- spectral intensity of the compound in the SEC spin column filtrate (protein fraction) ([1]; measured mass range m/z 564.1-565.1, protein 47.5 μM, compound 100 μM): 221983211
- spectral intensity of the compound in the SEC spin column filtrate (protein fraction) ([1]; measured mass range m/z 564.1-565.1, protein 47.5 μM, compound 250 μM): 530510575
- spectral intensity of the compound in the SEC spin column filtrate (protein fraction) ([1]; measured mass range m/z 577.9-578.9, protein 0 μM (protein-free reference), compound 1 μM): 17036968
- spectral intensity of the compound in the SEC spin column filtrate (protein fraction) ([1]; measured mass range m/z 577.9-578.9, protein 0 μM (protein-free reference), compound 10 μM): 25343556
- spectral intensity of the compound in the SEC spin column filtrate (protein fraction) ([1]; measured mass range m/z 577.9-578.9, protein 0 μM (protein-free reference), compound 100 μM): 62894601
- spectral intensity of the compound in the SEC spin column filtrate (protein fraction) ([1]; measured mass range m/z 577.9-578.9, protein 0 μM (protein-free reference), compound 250 μM): 234871658
- spectral intensity of the compound in the SEC spin column filtrate (protein fraction) ([1]; measured mass range m/z 577.9-578.9, protein 23.75 μM, compound 1 μM): 25890358
- spectral intensity of the compound in the SEC spin column filtrate (protein fraction) ([1]; measured mass range m/z 577.9-578.9, protein 23.75 μM, compound 100 μM): 421344902
- spectral intensity of the compound in the SEC spin column filtrate (protein fraction) ([1]; measured mass range m/z 577.9-578.9, protein 23.75 μM, compound 250 μM): 408003600
- spectral intensity of the compound in the SEC spin column filtrate (protein fraction) ([1]; measured mass range m/z 577.9-578.9, protein 47.5 μM, compound 1 μM): 31988946
- spectral intensity of the compound in the SEC spin column filtrate (protein fraction) ([1]; measured mass range m/z 577.9-578.9, protein 47.5 μM, compound 10 μM): 207450982
- spectral intensity of the compound in the SEC spin column filtrate (protein fraction) ([1]; measured mass range m/z 577.9-578.9, protein 47.5 μM, compound 100 μM): 908698063
- spectral intensity of the compound in the SEC spin column filtrate (protein fraction) ([1]; measured mass range m/z 577.9-578.9, protein 47.5 μM, compound 250 μM): 1265975868
- spectral intensity of the compound in the SEC spin column filtrate (protein fraction) ([1]; measured mass range m/z 611.7-612.7, protein 0 μM (protein-free reference), compound 1 μM): 18486648
- spectral intensity of the compound in the SEC spin column filtrate (protein fraction) ([1]; measured mass range m/z 611.7-612.7, protein 0 μM (protein-free reference), compound 10 μM): 24024699
- spectral intensity of the compound in the SEC spin column filtrate (protein fraction) ([1]; measured mass range m/z 611.7-612.7, protein 0 μM (protein-free reference), compound 100 μM): 30737736
- spectral intensity of the compound in the SEC spin column filtrate (protein fraction) ([1]; measured mass range m/z 611.7-612.7, protein 0 μM (protein-free reference), compound 250 μM): 58888872
- spectral intensity of the compound in the SEC spin column filtrate (protein fraction) ([1]; measured mass range m/z 611.7-612.7, protein 23.75 μM, compound 1 μM): 35126832
- spectral intensity of the compound in the SEC spin column filtrate (protein fraction) ([1]; measured mass range m/z 611.7-612.7, protein 23.75 μM, compound 10 μM): 106708813
- spectral intensity of the compound in the SEC spin column filtrate (protein fraction) ([1]; measured mass range m/z 611.7-612.7, protein 23.75 μM, compound 100 μM): 397014202
- spectral intensity of the compound in the SEC spin column filtrate (protein fraction) ([1]; measured mass range m/z 611.7-612.7, protein 23.75 μM, compound 250 μM): 267260198
- spectral intensity of the compound in the SEC spin column filtrate (protein fraction) ([1]; measured mass range m/z 611.7-612.7, protein 47.5 μM, compound 1 μM): 40595551
- spectral intensity of the compound in the SEC spin column filtrate (protein fraction) ([1]; measured mass range m/z 611.7-612.7, protein 47.5 μM, compound 10 μM): 194133547
- spectral intensity of the compound in the SEC spin column filtrate (protein fraction) ([1]; measured mass range m/z 611.7-612.7, protein 47.5 μM, compound 100 μM): 931095764
- spectral intensity of the compound in the SEC spin column filtrate (protein fraction) ([1]; measured mass range m/z 611.7-612.7, protein 47.5 μM, compound 250 μM): 1112309560
